According to PubChem BioAssay AID652165 (Sanford-Burnham Center for Chemical Genomics, 2013):
Calls of active or inactive are those of the source.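 How the source made its calls: active means IC50 at or below 20 µM; inactive means the rest.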

Target: Fatty acid synthase (Homo sapiens) (UniProt P49327)
Assay: FAS thioesterase domain inhibitors, SAR follow-up, biochemical, kinetic fluorescence intensity, dose response (AID 652165)
Settings: recombinant FAS-TE, OMFH fluorogenic substrate

Chain of Fatty acid synthase (Homo sapiens) (P49327 whole entry, looked up, the tested form may be a part): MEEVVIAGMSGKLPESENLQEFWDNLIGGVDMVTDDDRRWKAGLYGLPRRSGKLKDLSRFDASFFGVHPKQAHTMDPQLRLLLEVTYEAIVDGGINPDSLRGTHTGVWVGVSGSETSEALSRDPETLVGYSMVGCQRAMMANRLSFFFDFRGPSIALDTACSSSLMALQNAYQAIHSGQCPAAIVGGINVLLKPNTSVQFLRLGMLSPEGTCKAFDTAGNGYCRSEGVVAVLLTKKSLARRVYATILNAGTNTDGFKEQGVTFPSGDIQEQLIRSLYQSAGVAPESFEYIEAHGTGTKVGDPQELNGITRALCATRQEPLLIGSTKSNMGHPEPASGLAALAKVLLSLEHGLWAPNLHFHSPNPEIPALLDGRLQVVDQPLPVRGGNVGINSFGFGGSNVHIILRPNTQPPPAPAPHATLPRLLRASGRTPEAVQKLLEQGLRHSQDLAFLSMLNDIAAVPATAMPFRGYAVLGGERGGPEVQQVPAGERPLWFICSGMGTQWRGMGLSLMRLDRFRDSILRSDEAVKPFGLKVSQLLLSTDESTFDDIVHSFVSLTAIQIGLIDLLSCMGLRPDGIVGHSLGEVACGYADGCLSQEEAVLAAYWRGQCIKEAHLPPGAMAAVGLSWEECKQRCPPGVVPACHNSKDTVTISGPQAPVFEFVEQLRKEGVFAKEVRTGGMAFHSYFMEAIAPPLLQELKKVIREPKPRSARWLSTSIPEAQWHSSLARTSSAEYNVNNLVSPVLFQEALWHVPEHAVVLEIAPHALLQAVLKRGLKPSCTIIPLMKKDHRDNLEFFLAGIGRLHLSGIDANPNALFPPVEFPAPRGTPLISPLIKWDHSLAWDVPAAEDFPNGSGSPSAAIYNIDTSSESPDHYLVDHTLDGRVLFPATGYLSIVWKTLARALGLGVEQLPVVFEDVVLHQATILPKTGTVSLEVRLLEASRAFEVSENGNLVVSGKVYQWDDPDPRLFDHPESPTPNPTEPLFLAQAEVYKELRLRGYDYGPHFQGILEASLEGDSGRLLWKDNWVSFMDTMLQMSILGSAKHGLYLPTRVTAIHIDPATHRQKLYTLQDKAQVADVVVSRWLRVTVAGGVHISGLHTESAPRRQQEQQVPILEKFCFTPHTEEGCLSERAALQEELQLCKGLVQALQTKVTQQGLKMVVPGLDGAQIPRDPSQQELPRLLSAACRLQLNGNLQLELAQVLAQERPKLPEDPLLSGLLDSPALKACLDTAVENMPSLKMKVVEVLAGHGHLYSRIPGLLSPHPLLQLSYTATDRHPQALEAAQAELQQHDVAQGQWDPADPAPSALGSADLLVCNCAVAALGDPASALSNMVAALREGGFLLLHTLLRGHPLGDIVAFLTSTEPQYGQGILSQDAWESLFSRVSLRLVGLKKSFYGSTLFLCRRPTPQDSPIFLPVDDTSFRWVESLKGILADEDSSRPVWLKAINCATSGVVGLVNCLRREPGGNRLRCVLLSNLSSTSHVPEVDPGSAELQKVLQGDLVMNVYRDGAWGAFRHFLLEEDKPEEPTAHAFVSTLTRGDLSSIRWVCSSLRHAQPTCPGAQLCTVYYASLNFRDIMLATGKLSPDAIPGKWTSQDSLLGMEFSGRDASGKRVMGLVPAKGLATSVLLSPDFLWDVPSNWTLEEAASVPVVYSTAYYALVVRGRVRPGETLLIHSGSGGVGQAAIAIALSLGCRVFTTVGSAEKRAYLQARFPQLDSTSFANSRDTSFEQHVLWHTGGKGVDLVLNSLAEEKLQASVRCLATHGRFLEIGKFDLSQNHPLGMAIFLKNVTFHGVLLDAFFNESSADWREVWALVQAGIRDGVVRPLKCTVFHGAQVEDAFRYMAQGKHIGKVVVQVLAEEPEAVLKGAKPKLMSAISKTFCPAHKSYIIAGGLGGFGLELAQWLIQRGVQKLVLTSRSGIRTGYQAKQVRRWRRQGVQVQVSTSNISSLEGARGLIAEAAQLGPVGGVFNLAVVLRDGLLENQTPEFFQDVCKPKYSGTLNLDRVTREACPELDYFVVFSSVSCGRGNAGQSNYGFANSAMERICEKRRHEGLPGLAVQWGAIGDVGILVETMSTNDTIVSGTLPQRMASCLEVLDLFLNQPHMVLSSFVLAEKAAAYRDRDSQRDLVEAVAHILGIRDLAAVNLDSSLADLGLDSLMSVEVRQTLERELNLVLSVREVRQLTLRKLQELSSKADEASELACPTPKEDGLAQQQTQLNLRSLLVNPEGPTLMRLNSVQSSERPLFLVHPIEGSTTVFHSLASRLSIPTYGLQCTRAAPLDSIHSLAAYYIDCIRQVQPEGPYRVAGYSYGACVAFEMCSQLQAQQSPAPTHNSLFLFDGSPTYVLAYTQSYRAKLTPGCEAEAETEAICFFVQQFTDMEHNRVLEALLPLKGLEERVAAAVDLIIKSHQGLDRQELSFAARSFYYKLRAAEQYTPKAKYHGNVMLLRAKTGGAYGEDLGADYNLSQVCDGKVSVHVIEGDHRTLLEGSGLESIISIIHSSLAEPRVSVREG

Structure (SMILES) | IC50
CCCCC(=O)Nc1nc(-c2cccc(S(=O)(=O)N3CCOCC3)c2)cs1 | 18100 nM
CC1CCN(S(=O)(=O)c2ccc(-c3csc(NC(=O)C4CC4)n3)cc2)CC1 | > 80000 nM (inactive)
O=C(Nc1nc(-c2ccc(S(=O)(=O)N3CCCC3)cc2)cs1)C1CCCC1 | 751 nM
O=C(Nc1nc(-c2ccc(S(=O)(=O)N3CCOCC3)cc2)cs1)C1CCCCC1 | > 80000 nM (inactive)
CC(C)C(=O)Nc1nc(-c2ccc(S(=O)(=O)N3CCOCC3)cc2)cs1 | 875 nM
O=C(Nc1nc(-c2ccc(S(=O)(=O)N3CCCC3)cc2)cs1)C1CC1 | 658 nM
CC(C)CC(=O)Nc1nc(-c2ccc(S(=O)(=O)N3CCOCC3)cc2)cs1 | 6620 nM
CC(=O)Nc1nc(-c2ccc(S(=O)(=O)N3CCSCC3)cc2)cs1 | > 80000 nM (inactive)
CC(=O)Nc1nc(-c2ccc(S(=O)(=O)N3CCOCC3)cc2)cs1 | 12000 nM
CC(C)C(=O)Nc1nc(-c2ccc(S(=O)(=O)N3CCCC3)cc2)cs1 | 295 nM
O=C(Nc1nc(-c2ccc(S(=O)(=O)N3CCCC3)cc2)cs1)C1CCC1 | 347 nM
CC1CCN(S(=O)(=O)c2ccc(-c3csc(NC(=O)C(C)C)n3)cc2)CC1 | 643 nM
O=C(Nc1nc(-c2ccc(S(=O)(=O)N3CCOCC3)cc2)cs1)C1CCCC1 | > 80000 nM (inactive)
CCC(=O)Nc1nc(-c2ccc(S(=O)(=O)N3CCC(C)CC3)cc2)cs1 | > 80000 nM (inactive)
CCC(=O)Nc1nc(-c2ccc(S(=O)(=O)N3CCOCC3)cc2)cs1 | 4160 nM
CC(C)(C)OC(=O)Nc1nc(-c2ccc(S(=O)(=O)N3CCOCC3)cc2)cs1 | inactive
O=C(Nc1nc(-c2ccc(S(=O)(=O)N3CCOCC3)cc2)cs1)C1CC1 | 5110 nM
O=C(Nc1nc(-c2ccc(S(=O)(=O)N3CCOCC3)cc2)cs1)C1CCC1 | 3450 nM
CCC(C)C(=O)Nc1nc(-c2ccc(S(=O)(=O)N3CCOCC3)cc2)cs1 (centres undefined) | 289 nM
CCC(CC)C(=O)Nc1nc(-c2ccc(S(=O)(=O)N3CCOCC3)cc2)cs1 | 307 nM
CCCCC(=O)Nc1nc(-c2ccc(C(=O)N3CCOCC3)cc2)cs1 | inactive

More lines, now with the values ahead:

IC50 | Structure (SMILES)
1360 nM | CN(C)S(=O)(=O)c1ccc(-c2csc(NC(=O)C3CCC3)n2)cc1
1180 nM | CCN(CC)S(=O)(=O)c1ccc(-c2csc(NC(=O)C3CCCC3)n2)cc1
3140 nM | CCN(CC)S(=O)(=O)c1ccc(-c2csc(NC(=O)C3CCCCC3)n2)cc1
296 nM | CCC(C)C(=O)Nc1nc(-c2ccc(S(=O)(=O)N(CC)CC)cc2)cs1 (centres undefined)
3980 nM | CCC(=O)Nc1nc(-c2ccc(S(=O)(=O)N(CC)CC)cc2)cs1
644 nM | CCC(=O)Nc1nc(-c2ccc(S(=O)(=O)N3CCCC3)cc2)cs1
193 nM | CCCCC(=O)Nc1nc(-c2ccc(S(=O)(=O)N3CCCC3)cc2)cs1
318 nM | CCN(CC)S(=O)(=O)c1ccc(-c2csc(NC(=O)C(C)C)n2)cc1
552 nM | CCCCC(=O)Nc1nc(-c2ccc(S(=O)(=O)N3CCOCC3)cc2)cs1
2470 nM | CCN(CC)S(=O)(=O)c1ccc(-c2csc(NC(=O)C3CC3)n2)cc1
1500 nM | CN(C)S(=O)(=O)c1ccc(-c2csc(NC(=O)C3CCCC3)n2)cc1
649 nM | CCCCC(=O)Nc1nc(-c2ccc(S(=O)(=O)N3CCSCC3)cc2)cs1
169 nM | CCCCC(=O)Nc1nc(-c2ccc(S(=O)(=O)N(CC)CC)cc2)cs1
1090 nM | CCC(=O)Nc1nc(-c2ccc(S(=O)(=O)N(C)C)cc2)cs1
559 nM | CC(C)C(=O)Nc1nc(-c2ccc(S(=O)(=O)N(C)C)cc2)cs1
533 nM | CCCCC(=O)Nc1nc(-c2ccc(S(=O)(=O)N3CCC(C)CC3)cc2)cs1
1290 nM | CN(C)S(=O)(=O)c1ccc(-c2csc(NC(=O)C3CC3)n2)cc1
966 nM | CCN(CC)S(=O)(=O)c1ccc(-c2csc(NC(=O)C3CCC3)n2)cc1
